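In this assay, cells in 96-well plates receive the compound at five concentrations for 48 hours. Endpoints are linearly interpolated between the surrounding concentrations. GI50 marks 50% less growth. At the TGI there is no net growth.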 Where a SMILES comes first, the peptide text is derived from it. [ ]: non-standard residue; d: D form. ξ: configuration not given here. Pentanoyl(2-O,4-OH,5-Cl) = O=C(O)C(O)CC(O)CCl; Ile(3ξ) = CCC(C)[C@H](N)C(=O)O; NMeV = CN[C@H](C(=O)O)C(C)C; NMeA = CN[C@@H](C)C(=O)O; βAla = NCCC(=O)O

TGI and GI50 data for eleven compounds are collected here from PubChem BioAssay (NCI).

Among the test systems are NCI-H226 lung; HCC-2998 colon; OVCAR-3 ovarian; HT29 colon; MALME-3M melanoma; A498 renal; NCI-H23 lung; BT-549 breast.
Test in all cases: NCI tumour cell line growth inhibition, 48 h

For the compound `Clc1ccc(NCNC2Nc3ccccc3N2)cc1Cl`, the TGI is over 100 µM in the assay with NCI-H226 lung; over 100 µM with HCC-2998 colon; over 100 µM in the assay with OVCAR-3 ovarian; 64 µM with HT29 colon; over 100 µM in the assay on MALME-3M melanoma; over 100 µM in the assay on A498 renal. The TGI in the assay with NCI-H23 lung is over 100 µM.
`COc1ccc(-c2cc(=O)c3c(C)ccnc3[nH]2)cc1`: the TGI with NCI-H226 lung is over 100 µM; with BT-549 breast, 67.3 µM; in the assay on HCC-2998 colon, over 100 µM; with OVCAR-3 ovarian, 92 µM; with HT29 colon, 40.5 µM; in the assay with MALME-3M melanoma, 65.2 µM. Further, the TGI with A498 renal worked out at 41.4 µM; with NCI-H23 lung, 65.2 µM. For the same compound, the GI50 in the assay on OVCAR-3 ovarian is 13.9 µM.
As to `O=c1[nH]c(=O)n(Cc2ccc(C34CC5CC(CC(C5)C3)C4)c(O)c2)cc1F`, the GI50 with NCI-H226 lung is 16.7 µM; with BT-549 breast, 14.4 µM; with HCC-2998 colon, 14.5 µM; in the assay with OVCAR-3 ovarian it was 3.74 µM; in the assay with HT29 colon, 14.2 µM; in the assay with MALME-3M melanoma, 14.6 µM. Further, the figures for the GI50 in the assay with A498 renal and in the assay on NCI-H23 lung were 10.2 µM and 12.5 µM, respectively. For the same compound, the TGI with NCI-H226 lung turned out to be 32.6 µM; in the assay with BT-549 breast it was 28.1 µM; in the assay on HCC-2998 colon, 28.1 µM; in the assay with OVCAR-3 ovarian it was 17.8 µM; in the assay on HT29 colon it was 37.2 µM; in the assay with MALME-3M melanoma, 30.9 µM. In addition, the TGI in the assay with A498 renal was 22.1 µM; with NCI-H23 lung, 27.2 µM.
Consider `CCC(C)[C@@H]1NC(=O)[C@@H]2CCCN2C(=O)C(CC(O)CCl)OC(=O)CCNC(=O)[C@H](C)N(C)C(=O)[C@H](C(C)C)N(C)C1=O` (some centres not stated) (cyclo([Ile(3ξ)][NMeV][NMeA][βAla][Pentanoyl(2-O,4-OH,5-Cl)]P)), for which the TGI is over 100 µM in the assay with NCI-H226 lung; over 100 µM in the assay on BT-549 breast; over 100 µM in the assay on OVCAR-3 ovarian; over 100 µM in the assay on HT29 colon; over 100 µM with MALME-3M melanoma; over 93.5 µM in the assay on A498 renal. In the assay with NCI-H23 lung, this compound showed a TGI of over 100 µM.
`CCN(CC)CCN1C(=O)C2C3C(C)=CC(OC(C)=O)(CC3C)C2C1=O` (configuration not stated): the GI50 in the assay with NCI-H226 lung, with BT-549 breast, with HCC-2998 colon, in the assay with HT29 colon, in the assay with MALME-3M melanoma and in the assay on A498 renal was over 100 µM in each case. In addition, in the assay with NCI-H23 lung, the GI50 is over 100 µM. For the same compound, the TGI in the assay with NCI-H226 lung, with BT-549 breast, in the assay with HCC-2998 colon, in the assay on HT29 colon, in the assay with MALME-3M melanoma and in the assay on A498 renal was over 100 µM throughout. In the assay on NCI-H23 lung, this compound yielded a TGI of over 100 µM.
For `Cc1cc[c]([Sb]2[O]C(CO)C(C(O)C(O)C(=O)O)[O]2)cc1` (configuration not stated), the GI50 in the assay on NCI-H226 lung was 39.9 µM; in the assay with BT-549 breast, over 100 µM; in the assay on OVCAR-3 ovarian, over 100 µM; with HT29 colon it was 46.4 µM; with MALME-3M melanoma, over 100 µM; with A498 renal it was 32.3 µM. In the assay with NCI-H23 lung, the GI50 is over 100 µM. Besides, the TGI was over 100 µM in the assay on NCI-H226 lung; over 100 µM in the assay on BT-549 breast; over 100 µM in the assay on OVCAR-3 ovarian; over 100 µM in the assay on HT29 colon; over 100 µM in the assay with MALME-3M melanoma; 99.7 µM in the assay with A498 renal. For the same compound, the TGI with NCI-H23 lung was over 100 µM.
For `C/C(=C1\C(=O)Nc2ccccc21)c1cccc(/C(C)=C2/C(=O)Nc3ccccc32)n1`, the GI50 in the assay on NCI-H226 lung was 4.53 µM; in the assay with BT-549 breast it was 5.43 µM; in the assay with HCC-2998 colon, 2.38 µM; in the assay on OVCAR-3 ovarian, 4.52 µM; with HT29 colon, 8.09 µM; in the assay on A498 renal, 4.44 µM. Also, the GI50 in the assay on NCI-H23 lung is 16.8 µM. The TGI was 24.5 µM in the assay with NCI-H226 lung; 36.5 µM with BT-549 breast; 5.7 µM with HCC-2998 colon; 28.2 µM in the assay on OVCAR-3 ovarian; over 100 µM in the assay on HT29 colon; 34.8 µM in the assay on A498 renal. Also, the TGI with NCI-H23 lung amounted to 60.5 µM.
`COc1cccc2c1C(=O)c1c(O)c3c(c(O)c1C2=O)C[C@@](O)(/C(C)=N/NC(=O)c1cccc([N+](=O)[O-])c1)C[C@@H]3OC1CC(N)C(O)C(C)O1` (some centres not stated): the GI50 was 0.16 µM with NCI-H226 lung; 0.714 µM in the assay with BT-549 breast; 0.326 µM with HCC-2998 colon; 0.396 µM in the assay with OVCAR-3 ovarian; 0.238 µM in the assay on HT29 colon; 0.564 µM in the assay with A498 renal. The GI50 in the assay on NCI-H23 lung was 0.316 µM. The TGI with NCI-H226 lung was determined as 0.714 µM; in the assay with BT-549 breast it was 4.43 µM; with HCC-2998 colon, 2.77 µM; with OVCAR-3 ovarian it was 5.26 µM; in the assay on HT29 colon, 11.2 µM; in the assay with A498 renal, 2.23 µM. The compound also showed a TGI in the assay with NCI-H23 lung of 2.87 µM.
`COc1ccc(CC(C)NCC(O)c2ccc(O)c(NC=O)c2)cc1` (configuration not stated): the TGI in the assay on NCI-H226 lung, in the assay with BT-549 breast, with OVCAR-3 ovarian, with HT29 colon, with MALME-3M melanoma and in the assay on A498 renal was over 100 µM in each case. In addition, the TGI in the assay on NCI-H23 lung was over 100 µM.
With `COc1cccc(C2CC(C)(O)Oc3cc4c(cc32)OCO4)c1` (configuration not stated), the TGI in the assay on NCI-H226 lung was 53 µM; with BT-549 breast it was over 100 µM; in the assay with HCC-2998 colon, over 100 µM; in the assay on OVCAR-3 ovarian, 56 µM; with HT29 colon, 28.8 µM; with MALME-3M melanoma, over 100 µM. Also, the TGI with NCI-H23 lung was over 100 µM.
Turning to `CCOC(=O)c1sc2nc(=S)[nH]c(NC(N)=S)c2c1C`, the TGI in the assay on NCI-H226 lung came to 21.1 µM; in the assay with BT-549 breast it was 41 µM; with OVCAR-3 ovarian, 56.2 µM; with HT29 colon, 52.9 µM; with MALME-3M melanoma, 72.1 µM; in the assay on A498 renal, 62 µM. Besides, the TGI with NCI-H23 lung turned out to be 37.1 µM. Further, the GI50 with BT-549 breast was 12.6 µM; in the assay with OVCAR-3 ovarian it was 26.4 µM; in the assay on HT29 colon it was 20.1 µM; in the assay with MALME-3M melanoma, 37 µM; in the assay on A498 renal, 27.8 µM; with NCI-H23 lung it was 14.8 µM.
